For six compounds, GI50 and TGI results are on record in PubChem BioAssay (NCI).

Some test systems named below: EKVX NSCLC; KM12 colon; A549 NSCLC; TK-10 renal; SR leukemia; UACC-62 melanoma; NCI-H460 lung; SK-OV-3 ovarian; SF-295 CNS; ACHN renal; KM20L2 colon; SNB-78 CNS.
What all share (test): NCI tumour cell line growth inhibition, 48 h

SMILES strings stand for the structures.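 Exposure lasted 48 hours, with cells grown in 96-well plates and compounds tested at five concentrations. At the GI50, growth is halved. TGI: total growth inhibition.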

Consider `c1ccc(C2=NN[C@H](c3cn(-c4ccccc4)nc3-c3ccccc3)C2)cc1`, for which the GI50 is 4 µM with EKVX NSCLC; more than 100 µM in the experiment with KM12 colon; 4.02 µM with A549 NSCLC; 2.82 µM in the experiment with TK-10 renal; more than 100 µM with SR leukemia; 6.61 µM in the experiment on UACC-62 melanoma. For the same compound, the GI50 is 4.26 µM in the experiment with NCI-H460 lung and 2.04 µM in the experiment on SK-OV-3 ovarian. In addition, the TGI was more than 100 µM in the experiment with EKVX NSCLC; more than 100 µM in the experiment with KM12 colon; more than 100 µM with A549 NSCLC; 7.74 µM with TK-10 renal; more than 100 µM in the experiment with SR leukemia; more than 100 µM in the experiment on UACC-62 melanoma. Further, the TGI was more than 100 µM in the experiment with NCI-H460 lung and 4.52 µM with SK-OV-3 ovarian.

For the compound `C=CCCCCn1c2ccccc2c2c(C)c3c[n+](C)ccc3c(C)c21`, the TGI in the experiment on KM12 colon stood at 1.6 µM; with SF-295 CNS, 2.6 µM; in the experiment with A549 NSCLC it was 4.52 µM; with ACHN renal, 12.8 µM; in the experiment with TK-10 renal, 6.89 µM; in the experiment with SR leukemia, 1.1 µM. Besides, the TGI with UACC-62 melanoma amounted to 1.28 µM; in the experiment on KM20L2 colon it was 2.31 µM; in the experiment with SK-OV-3 ovarian, 3.2 µM.

As for `Cc1cc(=O)[nH]c(NN2C(Cl)C(=O)C2c2c(O)ccc3ccccc23)n1` (centres undefined), the TGI is more than 100 µM in the experiment with EKVX NSCLC; 61.5 µM with KM12 colon; more than 100 µM in the experiment on A549 NSCLC; more than 100 µM with ACHN renal; more than 100 µM in the experiment on TK-10 renal; 72.7 µM in the experiment on SR leukemia. Further, the TGI in the experiment on UACC-62 melanoma is 47.4 µM; in the experiment with SNB-78 CNS, 70.4 µM; with NCI-H460 lung it was 29.6 µM; in the experiment on KM20L2 colon it was 66.8 µM.

As for `Clc1ccc2c(Cl)nc(-c3ccccc3)nc2c1`, the TGI with EKVX NSCLC is 91.1 µM; in the experiment on KM12 colon, more than 100 µM; in the experiment with SF-295 CNS it was 90.3 µM; in the experiment with ACHN renal, more than 100 µM; in the experiment with TK-10 renal, more than 100 µM; in the experiment on SR leukemia it was more than 100 µM. For the same compound, the TGI with UACC-62 melanoma was more than 100 µM; with SNB-78 CNS, 91 µM; with NCI-H460 lung, more than 100 µM; in the experiment on KM20L2 colon, 68 µM; with SK-OV-3 ovarian, 62.3 µM.

For `CCCCCCCSCC1OC(n2cnc3c(N)ncnc32)C(O)C1O` (centres undefined), the TGI in the experiment with EKVX NSCLC is 56.2 µM; in the experiment with SF-295 CNS, more than 100 µM; in the experiment with A549 NSCLC, more than 100 µM; in the experiment on ACHN renal, more than 100 µM; in the experiment on TK-10 renal it was more than 100 µM; in the experiment on SR leukemia it was 43.4 µM. The TGI is more than 100 µM in the experiment with SNB-78 CNS, 42.1 µM in the experiment with NCI-H460 lung and more than 100 µM in the experiment with KM20L2 colon.

`Oc1c2c(c3c4c1N=CC=4CCN=3)C1(C=C(Br)C(O)C(Br)=C1)CCN2` (centres undefined): the TGI in the experiment on EKVX NSCLC stood at 4.94 µM; in the experiment on KM12 colon, 6.16 µM; in the experiment with SF-295 CNS, 7.74 µM; with A549 NSCLC, 12.5 µM; with UACC-62 melanoma it was 2.66 µM; with SNB-78 CNS, 10.4 µM. Besides, the TGI came to 8.47 µM in the experiment on NCI-H460 lung, 3.26 µM in the experiment with KM20L2 colon and 26 µM in the experiment with SK-OV-3 ovarian.
